Values of other authors in patent US20140228389A1, “DRY POWDER COMPOUND FORMULATIONS AND USES THEREOF” (Wyeth, LLC, priority 2006, published 2014).

Key:
opioid receptors = conditions: found in U.S. Ser. No. 11/441,395 and 11/441,452
[1] = white crystalline powder from Mallinckrodt Pharmaceuticals

## C[N+]1(CC2CC2)CCC23c4c5ccc(O)c4OC2C(=O)CCC3(O)C1C5 (single isomer, unassigned) [R—N isomer of methylnaltrexone]
Opioid receptors
  opioid activity (agonist or antagonist): opioid antagonist

## C[N+]1(CC2CC2)CC[C@]23c4c5ccc(O)c4O[C@H]2C(=O)CC[C@@]3(O)[C@H]1C5.[Br-] (stereo partly drawn) [Methylnaltrexone, Methylnaltrexone bromide]
[1]
  solubility in water: freely soluble in water

## C[N+]1(CC2CC2)CC[C@]23c4c5ccc(O)c4O[C@H]2C(=O)CC[C@@]3(O)[C@H]1C5.[Br-] (stereo partly drawn) [S—N isomer of methylnaltrexone, S-Methylnaltrexone bromide]
Opioid receptors
  opioid activity (agonist or antagonist): opioid agonist
